According to patent US5906981A, “Halopropargyl inclusion complexes” (Troy Corporation, priority 1996, dated 1999):

Columns and labels:
[1] = Thermal decomposition point; assay type: physicochemical; conditions: pure IPBC or IPBC in the inclusion complex
Procedure: The melting point of pure IPBC is 66-67° C. and its decomposition occurs at about 150-155° C., leading to formation of highly colored by-products. The decomposition point of IPBC in the inclusion complex of Examples 1 and 3 was determined to be about 222-225° C.

[2] = Dissolution in water: stirring in water for 1/2 hour, filtration, recovery of IPBC (Example 2); assay type: physicochemical; conditions: 4 g IPBC in 96 g water, stirred 1/2 hour
Procedure: Four grams of IPBC were added to 96 g of water and stirred for 1/2 hour. The resulting slurry was filtered off and the filter cake was dried and weighed. […] Approximately 27 g of the lyophilized inclusion complex prepared in Example 1 was added to 73 g water and the mixture was stirred for 1/2 hour. […] Use of the inclusion complex in this manner thus affords approximately 4% solution of IPBC in water, which is a solubility enhancement of approximately 250-300 times.

Structure (SMILES): CCCCNC(=O)OCC#CI [IPBC, 3-iodo-2-propynyl butylcarbamate]
- decomposition point [1]: 150-155 °C
- IPBC recovered in the filter cake [2]: Approximately 98%
